For orientation: logD means lipophilicity at a set pH, counting ionised and neutral species. A lower logD goes with a more hydrophilic compound.

This data set is described as follows: method code SF, from DOI: 10.1002/jps.2600780616, PMID: 2527297. The following applies: pH 7.4.

The molecule `CS(=O)(=O)c1ccc2oc(N(N)CCC#N)nc2c1` came in with a log distribution coefficient (logD) of -0.58.
Turning to `CSc1ccc2oc(N(N)CCC#N)nc2c1`, the logD was found to be 1.5.
With `COc1ccc2oc(N(N)CCC#N)nc2c1` the figure was 0.98; with `N#CCCN(N)c1nc2cc(C(F)(F)F)ccc2o1`, 1.72; with `N#CCCN(N)c1nc2cc(Cl)ccc2o1`, 1.72.
With `CCc1ccc2oc(N(N)CCC#N)nc2c1` the figure was 1.91.
With `CC(C)(C)c1ccc2oc(N(N)CCC#N)nc2c1` the figure was 2.82; with `Cc1ccc2oc(N(N)CCC#N)nc2c1`, 1.48; with `N#CCCN(N)c1nc2cc(OCc3ccccc3)ccc2o1`, 2.52.
Consider `CS(=O)c1ccc2oc(N(N)CCC#N)nc2c1` (centres undefined), for which the logD was -0.53.
For the molecule `N#CCCN(N)c1nc2cc(C(=O)c3ccccc3)ccc2o1`, the logD came out at 1.94.
On to `N#CCCN(N)c1nc2ccccc2o1`, for which the logD is 0.9.
The result for `N#CCCN(N)c1nc2cc(F)ccc2o1` reads 1.09; that for `N#CCCN(N)c1nc2cc(C#N)ccc2o1`, 0.42.

The values above are taken from the SangsterLogP compilation.
